Tests used:
S. typhi = test: Antibacterial agar well diffusion; format: cell-based, Salmonella typhi (ATCC0650); conditions: Salmonella enterica, TYPHI, 24 h, 6.25 mg/mL per well, 37 °C
Text: (§1) The antibacterial assay was done for all compounds (1–6) as described in previous studies. The mean number of viable organisms per milliliter of stock suspensions containing Escherichia coli (ATCC25922), Pseudomonas aeruginosa (ATCC27853), Salmonella typhi (ATCC0650), and Staphylococcus aureus (NCTC25953) was uncovered using the surface viable counting method. Preparations of suspensions containing approximately 108–109 colony forming units (CFU) per milliliter were made. Aseptic nutritional agar was formulated and transferred onto petri dishes. Cultures of bacteria were uniformly distributed on agar surface using sterile brush sticks. Five wells, each with a diameter of 6 mm, were made in each plate using a sterile borer. Afterwards, a concentration of 6.25 mg/mL of each component was applied to separate wells. Cephradine, a readily accessible antibiotic, was employed as a reference standard at an equivalent concentration. Following sealing, the agar dishes were incubated at a controlled temperature of 37 °C for a period of 24 h. The zone of inhibition in the plates was determined, which represents the inhibition of bacterial growth. Each sample zone of inhibition diameter was evaluated, and the antibacterial effectiveness of each drug was quantified according to the mean diameter of the inhibition zone (in millimetres).

[1] = DPPH free radical scavenging assay; format: biochemical
Experimental: (§2) In accordance with the procedure described in the literature, the ABTS activity assay was applied to evaluate the free radical scavenging capabilities of the synthesized compounds (1–6). ABTS solution was prepared by mixing 7 mM ABTS and 2.45 mM potassium persulfate and was then placed for 16 h under dark at room temperature. A methanol dilution was performed on the solution to achieve an absorbance of 0.706 ± 0.001 at 734 nm before starting the assay. To quantify the assay, 3 mL of the ABTS solution has been added to different concentrations (ranging from 62.5 to 1000 μg/mL) of every compound (300 μL) that were dissolved in methanol. Then after 1 min of incubation, the absorbance was continuously measured for 5 min. To confirm precision, all experiments were conducted in triplicate. The antioxidant capacities of the compounds were assessed with gallic acid as a reference, and the ability to remove free radicals was calculated as a percentage for each compound employing Equation.1 as presented below. Additionally, the DPPH free radical scavenging method was employed to assess the antioxidant activity of compounds (1–6), in accordance with a widely recognized procedure documented in existing literature. Concentrations ranging from 62.5 to 1000 μg/mL of compounds (1–6), dissolved in methanol, were introduced into a 2 mL solution of DPPH (0.002 % in methanol). The resulting solutions were kept in the dark at room temperature for a duration of 30 min. The amount of light absorbed by the solutions was then determined using a UV/vis spectrophotometer at a wavelength of 517 nm. The investigations were performed three times, using the exact protocol described for the ABTS scavenging assay. Afterwards, the antioxidant capabilities of each molecule were assessed using calculation.(1) Scavengingactivity(%)=A−B/A×100
(§3) Where, A = absorbance of ABTS/DPPH and B = absorbance of solution containing ABTS/DPPH and test samples.

[2] = ABTS free radical scavenging assay; format: biochemical
Experimental: as §2, §3

E. coli = test: Antibacterial agar well diffusion; format: cell-based, Escherichia coli (ATCC25922); conditions: Escherichia coli, 24 h, 6.25 mg/mL per well, 37 °C
Text: as §1

[3] = biological target: T1, butyryl cholinesterase (BChE) (Equus caballus, UniProt P81908); test: Anticholinesterase assay (Elman's test), BChE; format: biochemical; conditions: for inhibition at 62.5 µg/mL / inhibition at 125 µg/mL / inhibition at 250 µg/mL / inhibition at 500 µg/mL / inhibition at 1000 µg/mL: read-out: BChE Percent inhibition
T1 construct: The AChE was derived from the electric eel, while BChE was obtained from equineserum; from tissue; host or cells: equine serum
T1 sequence (P81908 whole entry): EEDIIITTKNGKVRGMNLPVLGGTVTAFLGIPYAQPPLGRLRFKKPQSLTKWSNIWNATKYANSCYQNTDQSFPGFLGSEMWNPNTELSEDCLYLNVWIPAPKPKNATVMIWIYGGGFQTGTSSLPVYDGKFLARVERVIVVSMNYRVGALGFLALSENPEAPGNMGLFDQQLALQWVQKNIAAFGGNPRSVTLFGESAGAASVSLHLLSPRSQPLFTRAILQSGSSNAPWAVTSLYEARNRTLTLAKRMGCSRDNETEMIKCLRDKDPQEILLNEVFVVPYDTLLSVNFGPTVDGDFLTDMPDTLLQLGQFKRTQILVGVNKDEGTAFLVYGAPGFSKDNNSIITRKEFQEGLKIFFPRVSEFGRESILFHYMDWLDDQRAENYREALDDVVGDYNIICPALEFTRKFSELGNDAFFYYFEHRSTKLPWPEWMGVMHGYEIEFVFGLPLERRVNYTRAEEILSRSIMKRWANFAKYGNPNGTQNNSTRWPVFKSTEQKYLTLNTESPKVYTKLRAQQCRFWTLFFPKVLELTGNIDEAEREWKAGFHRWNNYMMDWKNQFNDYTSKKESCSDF
Experimental: (§4) This assay employed two enzymes, namely acetylcholinesterase (AChE) and butyryl cholinesterase (BChE). The AChE was derived from the electric eel, while BChE was obtained from equineserum. The synthesized compounds were dissolved in phosphate buffer (0.1 M, pH 8.0). The enzymes AChE (518 U/mg) and BChE (7–16 U/mg) were diluted in a 0.1 M phosphate buffer to achieve concentrations of 0.03 U/mL and 0.01 U/mL, respectively. Preparations of ATchI (0.5 mM), DTNB (0.2273 mM), and BTchI (0.5 mM) were made in distilled water and stored at a low temperature of 8 °C. […] The solution was heated to 30 °C for 15 min, followed by the gradual addition of the substrate. Absorbance of the heated sample at 412 nm was measured using a double beam spectrophotometer. […] The percentage activity (A) and inhibition of the enzyme were determined by applying the rate of absorption as a function of time (V=ΔAbs/Δt) using the following equation (Equation (2)).(2) %Inhibition=V/Vmax×100 Where V = enzyme inhibition activity of products and Vmax = enzyme activity without test of product.

P. aeruginosa = test: Antibacterial agar well diffusion; format: cell-based, Pseudomonas aeruginosa (ATCC27853); conditions: Pseudomonas aeruginosa, 24 h, 6.25 mg/mL per well, 37 °C
Text: as §1

[4] = biological target: T2, acetylcholinesterase (AChE) (Electrophorus electricus, UniProt O42275); test: biochemical; conditions: for inhibition at 62.5 µg/mL / inhibition at 125 µg/mL / inhibition at 250 µg/mL / inhibition at 500 µg/mL / inhibition at 1000 µg/mL: read-out: AChE Percent inhibition
T2 construct: The AChE was derived from the electric eel, while BChE was obtained from equineserum; from tissue; host or cells: electric eel (tissue not specified)
T2 sequence (O42275 24-633): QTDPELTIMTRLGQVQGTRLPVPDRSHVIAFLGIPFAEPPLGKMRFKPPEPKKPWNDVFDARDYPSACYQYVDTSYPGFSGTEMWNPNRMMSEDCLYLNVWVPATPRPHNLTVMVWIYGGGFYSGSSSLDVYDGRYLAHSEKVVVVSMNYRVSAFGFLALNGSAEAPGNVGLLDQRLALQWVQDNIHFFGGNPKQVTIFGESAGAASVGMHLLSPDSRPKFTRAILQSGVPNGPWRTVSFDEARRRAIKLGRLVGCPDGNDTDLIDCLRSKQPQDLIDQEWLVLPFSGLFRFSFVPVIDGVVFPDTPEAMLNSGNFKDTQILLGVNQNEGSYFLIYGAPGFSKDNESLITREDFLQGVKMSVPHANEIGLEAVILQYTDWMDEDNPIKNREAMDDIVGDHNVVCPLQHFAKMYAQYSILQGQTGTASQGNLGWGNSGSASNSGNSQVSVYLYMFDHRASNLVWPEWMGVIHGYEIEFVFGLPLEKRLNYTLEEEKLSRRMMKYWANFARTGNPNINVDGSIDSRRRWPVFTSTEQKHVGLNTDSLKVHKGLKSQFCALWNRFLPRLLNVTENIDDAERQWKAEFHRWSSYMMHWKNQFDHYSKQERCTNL
Experimental: as §4

S. flexenari = test: Antibacterial agar well diffusion; format: cell-based; conditions: 24 h, 6.25 mg/mL per well, 37 °C

| SMILES | zone of inhibition at 6250 µg/mL (S. typhi) [mm] | DPPH IC50 [1] [µg/mL] | DPPH %inhibition ([1]; 62.5 μg/mL) [%] | DPPH %inhibition ([1]; 125 μg/mL) [%] | DPPH %inhibition ([1]; 250 μg/mL) [%] | DPPH %inhibition ([1]; 500 μg/mL) [%] | DPPH %inhibition ([1]; 1000 μg/mL) [%] | ABTS IC50 [2] [µg/mL] | ABTS %inhibition ([2]; 62.5 μg/mL) [%] | ABTS %inhibition ([2]; 250 μg/mL) [%] | ABTS %inhibition ([2]; 500 μg/mL) [%] | ABTS %inhibition ([2]; 1000 μg/mL) [%] | zone of inhibition at 6250 µg/mL (E. coli) [mm] | inhibition at 62.5 µg/mL [3] [%] | inhibition at 125 µg/mL [3] [%] | inhibition at 250 µg/mL [3] [%] | inhibition at 500 µg/mL [3] [%] | inhibition at 1000 µg/mL [3] [%] | zone of inhibition at 6250 µg/mL (P. aeruginosa) [mm] | IC50 [4] [µM] | further results |
| --- | --- | --- | --- | --- | --- | --- | --- | --- | --- | --- | --- | --- | --- | --- | --- | --- | --- | --- | --- | --- | --- |
| S=C(Nc1ccc(Cl)cc1)NC1CCCCC1 [Compound 4, 1-(4-chlorophenyl)-3-cyclohexylthiourea] | 11.5 | 67.11 | 48.18 ± 2.31 | 54.67 ± 2.08 | 63.74 ± 0.81 | 72.29 ± 0.27 | 82.11 ± 1.20 | 67.01 | 48.19 ± 1.26 | 61.14 ± 1.43 | 71.03 ± 1.61 | 81.23 ± 1.01 | 12 | 33 ± 1.15 | 42.7 ± 0.89 | 49 ± 0.58 | 63.03 ± 0.23 | 71.33 ± 0.49 | 10 | 928 | IC50 [3]: 814 µM; inhibition at 62.5 µg/mL [4]: 31.9 ± 0.48%; inhibition at 125 µg/mL [4]: 39 ± 0.48%; inhibition at 250 µg/mL [4]: 47.9 ± 0.96%; inhibition at 500 µg/mL [4]: 61.6 ± 1.34%; inhibition at 1000 µg/mL [4]: 69.6 ± 1.12%; zone of inhibition at 6250 µg/mL (S. flexenari): 13 mm |
| Cc1cccnc1NC(=S)Nc1ccccc1 [Compound 5, 1-(3-methylpyridin-2-yl)-3-phenylthiourea] | 11.5 | 37.50 | 62.44 ± 0.58 | 67.56 ± 1.73 | 74.31 ± 2.15 | 81.65 ± 1.34 | 88.58 ± 1.12 | 44.60 | 67.80 ± 1.50 | 77.42 ± 0.43 | 85.23 ± 1.83 | 92.76 ± 0.71 | 10.5 | 31.9 ± 0.48 | 39 ± 0.48 | 47.9 ± 0.96 | 61.6 ± 1.34 | 69.6 ± 1.12 | 9.5 | 1410 | ABTS %inhibition ([2]; 125 μg/mL): 72.56 ± 1.06%; inhibition at 62.5 µg/mL [4]: 38.7 ± 0.68%; inhibition at 125 µg/mL [4]: 44.7 ± 1.25%; inhibition at 250 µg/mL [4]: 48 ± 0.75%; inhibition at 500 µg/mL [4]: 56.3 ± 1.06%; inhibition at 1000 µg/mL [4]: 63.3 ± 0.98%; zone of inhibition at 6250 µg/mL (S. flexenari): 10.5 mm |
| S=C(Nc1ccccc1)Nc1cccc(Cl)c1 [Compound 6, 1-(3-chlorophenyl)-3-phenylthiourea] | 9.5 | 90.30 | 43.49 ± 2.72 | 53.66 ± 1.17 | 61.47 ± 2.74 | 76.24 ± 2.61 | 82.19 ± 2.32 | 86.03 | 44.27 ± 1.53 | 63.09 ± 1.34 | 75.19 ± 2.59 | 81.28 ± 2.17 | 8.5 | 51.61 ± 0.43 | 55.1 ± 0.6 | 61.2 ± 1.4 | 66.8 ± 7.85 | 71.6 ± 1.63 | 15.5 | 329 | ABTS %inhibition ([2]; 125 μg/mL): 53.26 ± 2.76%; IC50 [3]: 216 µM; inhibition at 62.5 µg/mL [4]: 47.61 ± 0.43%; inhibition at 125 µg/mL [4]: 52.7 ± 1.01%; inhibition at 250 µg/mL [4]: 57.8 ± 1.5%; inhibition at 500 µg/mL [4]: 62.84 ± 0.3%; inhibition at 1000 µg/mL [4]: 67.51 ± 0.54%; zone of inhibition at 6250 µg/mL (S. flexenari): 10.5 mm |
